Experimental data taken from patent US6372746B1, “Derivatives of acyl-piperazinyl-pyrimidines, preparation thereof and application as medicaments” (Laboratorios Del Dr. Esteve, S.A., priority 1997, dated 2002).
Counter-ions that a name gives are not always drawn.

How the values were obtained:
mice [1] = test: Sleep-inducing activity: capacity to increase the sleep time induced by barbital; type: in vivo; details: for % Activity (sleep) Dosage 100 mg/kg: product 100 mg/Kg i.p., 15 min after barbital 150 mg/Kg i.v.; for DE50: product i.p. 15 min after barbital 150 mg/Kg i.v., dosage efficacy 50
Experimental: Sleep-inducing Activity in Mice
Fifteen minutes after the administration of barbital (150 mg/Kg, i.v.), the mice were treated with the product of the study at an initial dose of 100 mg/Kg (i.p.).

mice [2] = test: General anaesthetic activity in mice, I.V. administration; type: in vivo; details: i.v. caudal vein; for Duration: duration of sleep; for Start / Start (s): start of sleep
Experimental: General Anaesthetic Activity
The general anaesthetic activity was study in mice, injecting the product of the study in the caudal vein. The start and duration time of sleep were recorded. The results for some of the products of the patent are shown in Table 3 and it can be seen that they show a clear anaesthetic activity with respect to the reference compound (Propofol), with the animals recovering later.

mice [3] = test: Muscular relaxant (miorelaxant) activity in the Irwing mouse test; type: in vivo; details: 80 mg/kg i.p.; for % muscular relaxation at a time of: 1 H: 1 H after administration; for % muscular relaxation at a time of: 2 H: 2 H after administration; for % muscular relaxation at a time of: 3 H: 3 H after administration; for % muscular relaxation at a time of: 4 H: 4 H after administration; for % muscular relaxation at a time of: 5 H: 5 H after administration; for % muscular relaxation at a time of: ½ H: ½ H after administration
Experimental: Muscular Relaxant Activity
The mice received the products under study at a dosage of 80 mg/kg, via I.p., and at different times after administration (½, 1, 2, 3, 4 and 5 hours) the body tone and the abdominal tone was evaluated looking at the muscular tension compared to the control animals.

mice [4] = test: Analgesic activity: protection from contortions induced by phenylbenzoquinone; type: in vivo; details: for DE50 (mg/kg, o.a.): o.a. (orally); for DE50 (mg/kg, o.a.) / DE50 (mg/kg, s.c.): phenylbenzoquinone 5 mg/kg i.p.
Experimental: The analgesic activity of the products of the invention have been studied by evaluation of their effect in the test of contortions induced by phenylbenzoquinone in mice, following the method described by Siegmund E., and coworkers (Proc. Soc. Exp. Biol. Med. 1957, 95: 729-731).
The mice received the products of the study, a different dosage levels, and one later they received an injections i.p. of 5 mg/kg of phenylbenzoquinone. The portions of the mice were registered for the following fifteen minutes and compared the contortions of the control group. The DE50 (dosage efficacy 50) of the pound of Example 4 is shown.

## COc1ccnc(N2CCN(C(=O)C3CC3)CC2)n1 [Example 9]
Mice [1]
  % Activity (sleep) Dosage 100 mg/kg: 67%
  DE50: 28.1 mg/kg

## COc1ccnc(N2CCN(C(=O)c3ccco3)CC2)n1 [Example 2, 2-[4-(2-furylcarbonyl)-1-piperazinyl]-4-methoxypyrimidine chlorohydrate]
Mice [2]; dosage 40 mg/kg
  Duration: 0.6 min
  Start: 12 s
Mice [2]; dosage 80 mg/kg
  Duration: 5.3 min
  Start (s): Immediate
Mice [1]
  % Activity (sleep) Dosage 100 mg/kg: 93%
  DE50: 14.4 mg/kg

## CC(C)c1cccc(C(C)C)c1O [Propofol, reference compound]
Mice [2]; dosage 80 mg/kg
  Duration: 0 min
  Start (s): No
Mice [2]; dosage 106 mg/kg
  Duration: 6.2 min
  Start: 30 s
Mice [2]; dosage 120 mg/kg
  Duration: 3.9 min
  Start: 20 s
Mice [3]
  % muscular relaxation at a time of: 1 H: 100%
  % muscular relaxation at a time of: 2 H: 70%
  % muscular relaxation at a time of: 3 H: 0%
  % muscular relaxation at a time of: 4 H: 0%
  % muscular relaxation at a time of: 5 H: 0%
  % muscular relaxation at a time of: ½ H: 100%

## Cc1sc2ccccc2c1Cl
other
  melting point: 175 to 176 °C

## COc1ccnc(N2CCN(C(=O)c3ccco3)CC2)n1 (as salt: HCl) (hydrate or solvate) [Example 2, 2-[4-(2-furylcarbonyl)-1-piperazinyl]-4-methoxypyrimidine chlorohydrate]
other
  melting point: 162 to 164 °C

## CCCC(C)(COC(N)=O)COC(N)=O [Meprobamate, reference compound]
Mice [1]
  % Activity (sleep) Dosage 100 mg/kg: 54%
  DE50: 84.5 mg/kg

## CC(=O)Oc1ccccc1C(=O)O [Aspirin, reference compound]
Mice [4]
  DE50 (mg/kg, o.a.): 120 mg/kg
  DE50 (mg/kg, s.c.): 84 mg/kg

## COc1ccnc(N2CCN(C(=O)c3ccsc3)CC2)n1 (as salt: HCl) (hydrate or solvate) [Example 13, 4-methoxy-2-[4-(3-thienylcarbonyl)-1-piperazinyl]pyrimidine chlorohydrate]
other
  melting point: 154 to 156 °C

## COc1ccnc(N2CCN(C(=O)c3cccs3)CC2)n1 (as salt: HCl) (hydrate or solvate) [Example 4, 4-methoxy-2-[4-(2-thienylcarbonyl)-1-piperazinyl]pyrimidine chlorohydrate]
other
  melting point: 143 to 145 °C

## COc1ccnc(N2CCN(C(=O)c3ccsc3)CC2)n1 [Example 13, 4-methoxy-2-[4-(3-thienylcarbonyl)-1-piperazinyl]pyrimidine chlorohydrate]
Mice [1]
  % Activity (sleep) Dosage 100 mg/kg: 77%
  DE50: 41.3 mg/kg

## COc1ccnc(N2CCN(C(=O)c3cccs3)CC2)n1 [Example 4, 4-methoxy-2-[4-(2-thienylcarbonyl)-1-piperazinyl]pyrimidine chlorohydrate]
Mice [2]; dosage 40 mg/kg
  Duration: 1.3 min
  Start: 15 s
Mice [2]; dosage 80 mg/kg
  Duration: 7.4 min
  Start (s): Immediate
Mice [1]
  % Activity (sleep) Dosage 100 mg/kg: 100%
  DE50: 8.7 mg/kg
Mice [3]
  % muscular relaxation at a time of: 1 H: 90%
  % muscular relaxation at a time of: 2 H: 10%
  % muscular relaxation at a time of: 3 H: 0%
  % muscular relaxation at a time of: 4 H: 0%
  % muscular relaxation at a time of: 5 H: 0%
  % muscular relaxation at a time of: ½ H: 100%
Mice [4]
  DE50 (mg/kg, o.a.): 72 mg/kg
  DE50 (mg/kg, s.c.): 48 mg/kg
Mice [4]; subcutaneously and orally
  analgesic activity compared with aspirin (in words): better analgesic activity
